Literature values, collected in patent publication US20210128584A1, “USE OF GLUCOCORTICOID RECEPTOR ANTAGONISTS FOR THE TREATMENT OF AMYOTROPHIC LATERAL SCLEROSIS” (Corcept Therapeutics Incorporated, priority 2008, published 2021).

fraction of the daily dose excreted in the urine: less than 0.5%
Structure (SMILES): CC#C[C@]1(O)CC[C@H]2[C@@H]3CCC4=CC(=O)CCC4=C3[C@@H](c3ccc(N(C)C)cc3)C[C@@]21C [Mifepristone, 17β-hydroxy-11β-(4-dimethyl-aminophenyl)-17α-(1-propynyl)-estra-4,9-dien-3-one]
